Laboratory results taken from ChEMBL document CHEMBL5113554, “Dactylosporolides: Glycosylated Macrolides from Dactylosporangium fulvum” (J Nat Prod, 2022).

How the values were obtained:
Plasmodium falciparum [1] = assay: Antiparasitic activity against Plasmodium falciparum 3D7 infected in erythrocytes assessed as inhibition of parasite growth at 50 uM incubated for 48 hrs by SYBR Green I dye based fluorescence assay relative to control; format: functional; conditions: 3D7, Erythrocyte
Plasmodium falciparum [2] = assay: Antiparasitic activity against Plasmodium falciparum 3D7 infected in erythrocytes assessed as parasite growth inhibition incubated for 48 hrs by SYBR Green I dye based fluorescence assay; format: functional, organism-based; conditions: 3D7, Erythrocyte

SMILES | inhibition at 50 µM (Plasmodium falciparum [1]) [%] | IC50 (Plasmodium falciparum [2]) [µM]
CO[C@@H]1C[C@H](O[C@H]2C[C@@H]3C[C@H](O)[C@@H](C)[C@](O)(C[C@@H](O)CCCC(=O)O[C@H](C[C@@H](O)[C@H](C)[C@@H](O)[C@@H](C)[C@@H](O)CC(C)C)[C@@H](C)/C=C/C=C/[C@@H](O)C2)O3)O[C@H](C)[C@H]1O | 34 | > 50
CO[C@H]1[C@H](O)C[C@H](O[C@H]2[C@H](O)C[C@H](O[C@H]3CC[C@H](O[C@@H](CC(C)C)[C@H](C)[C@H](O)[C@@H](C)[C@H](O)C[C@H]4OC(=O)CCC[C@H](O)C[C@]5(O)O[C@H](C[C@H](O[C@H]6C[C@@H](OC)[C@H](O)[C@@H](C)O6)C[C@H](O)/C=C/C=C/[C@@H]4C)C[C@H](O)[C@H]5C)O[C@@H]3C)O[C@@H]2C)O[C@@H]1C | 95.6 | 16
CO[C@@H]1C[C@H](O[C@H]2C[C@@H]3C[C@H](O)[C@@H](C)[C@](O)(C[C@@H](O)CCCC(=O)O[C@H](C[C@@H](O)[C@H](C)[C@@H](O)[C@@H](C)[C@H](CC(C)C)O[C@H]4CC[C@H](O[C@H]5C[C@@H](O)[C@H](O[C@H]6C[C@@H](O)[C@H](O)[C@@H](C)O6)[C@@H](C)O5)[C@@H](C)O4)[C@@H](C)/C=C/C=C/[C@@H](O)C2)O3)O[C@H](C)[C@H]1O | 74.8 | 32
CCN(CC)CCCC(C)Nc1ccnc2cc(Cl)ccc12 (configuration not stated) [CHLOROQUINE] | 100 | –
